Reference: patent US6566344B1, “β-L-2′-deoxy-nucleosides for the treatment of hepatitis B” (priority 1998, dated 2003)

What was measured:
[1] = test system: woodchuck hepatitis virus (WHV); experiment: Woodchuck model of chronic HBV infection (WHV DNA in serum); type: in vivo, woodchucks (Marmota monax)
Method: The efficacy of L-dA, L-dT and L-dC against hepadnavirus infection in woodchucks (Marmota monax) chronically infected with woodchuck hepatitis virus (WHV) was determined. This animal model of HBV infection is widely accepted and has proven to be useful for the evaluation of antiviral agents directed against HBV. Experimental groups (n=3 animals/drug group, n=4 animals/control) [table] Drugs were administered by oral gavage once daily, and blood samples taken on days 0, 1, 3, 7, 14, 21, 28, and on post-treatment days +1, +3, +7, +14, +28 and +56. Assessment of the activity and toxicity was based on the reduction of WHV DNA in serum: dot-blot, quantative PCR.

human DNA polymerase α = target: T1, human DNA polymerase α (Homo sapiens, UniProt P09884); experiment: Inhibition of human DNA polymerase α (Dixon plot, calf thymus activated DNA, dATP); type: biochemical; conditions: calf thymus activated DNA as template-primer, dATP as substrate; read-out: DNA pol α Ki
T1 sequence (P09884 1-1462): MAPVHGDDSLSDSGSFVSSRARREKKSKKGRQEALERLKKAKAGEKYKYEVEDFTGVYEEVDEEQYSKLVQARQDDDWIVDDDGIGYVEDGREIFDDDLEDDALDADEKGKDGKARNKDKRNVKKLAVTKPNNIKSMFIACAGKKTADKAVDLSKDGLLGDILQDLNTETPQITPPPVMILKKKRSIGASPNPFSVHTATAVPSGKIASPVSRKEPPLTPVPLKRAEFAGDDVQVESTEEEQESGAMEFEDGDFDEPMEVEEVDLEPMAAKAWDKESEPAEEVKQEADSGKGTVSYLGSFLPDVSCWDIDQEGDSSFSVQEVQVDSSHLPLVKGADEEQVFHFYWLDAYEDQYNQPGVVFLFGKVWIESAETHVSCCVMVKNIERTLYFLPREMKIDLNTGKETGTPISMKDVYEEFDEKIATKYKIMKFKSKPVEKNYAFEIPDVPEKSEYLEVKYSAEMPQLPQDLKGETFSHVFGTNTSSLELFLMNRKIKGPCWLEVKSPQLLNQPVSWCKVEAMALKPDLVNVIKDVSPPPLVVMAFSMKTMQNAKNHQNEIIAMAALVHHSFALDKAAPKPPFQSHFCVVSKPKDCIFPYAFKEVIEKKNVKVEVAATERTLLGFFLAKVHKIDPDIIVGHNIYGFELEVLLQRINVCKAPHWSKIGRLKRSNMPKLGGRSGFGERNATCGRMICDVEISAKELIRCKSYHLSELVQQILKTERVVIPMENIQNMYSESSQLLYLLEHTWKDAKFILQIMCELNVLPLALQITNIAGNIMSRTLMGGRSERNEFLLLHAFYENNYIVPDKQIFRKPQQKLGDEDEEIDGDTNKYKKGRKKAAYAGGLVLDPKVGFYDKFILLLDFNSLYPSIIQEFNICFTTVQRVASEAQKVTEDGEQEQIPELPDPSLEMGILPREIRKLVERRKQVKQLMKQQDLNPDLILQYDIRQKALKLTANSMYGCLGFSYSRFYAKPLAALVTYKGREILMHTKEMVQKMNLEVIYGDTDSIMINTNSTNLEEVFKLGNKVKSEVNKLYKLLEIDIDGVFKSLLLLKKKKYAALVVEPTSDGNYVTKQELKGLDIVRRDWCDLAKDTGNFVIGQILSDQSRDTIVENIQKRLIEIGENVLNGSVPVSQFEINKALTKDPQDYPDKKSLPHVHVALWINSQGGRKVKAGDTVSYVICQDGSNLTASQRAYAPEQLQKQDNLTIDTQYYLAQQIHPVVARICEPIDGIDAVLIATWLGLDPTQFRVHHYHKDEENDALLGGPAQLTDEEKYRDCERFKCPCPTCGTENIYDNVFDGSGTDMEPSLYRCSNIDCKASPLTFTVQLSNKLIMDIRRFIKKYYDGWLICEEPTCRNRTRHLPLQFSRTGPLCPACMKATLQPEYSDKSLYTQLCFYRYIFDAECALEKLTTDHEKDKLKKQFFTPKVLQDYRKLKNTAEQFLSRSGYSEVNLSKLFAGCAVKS

human DNA polymerase β = human DNA polymerase β (Homo sapiens, UniProt P06746); experiment: Inhibition of human DNA polymerase β (Dixon plot, calf thymus activated DNA, dATP); type: biochemical; conditions: calf thymus activated DNA as template-primer, dATP as substrate; read-out: DNA pol β Ki
[2] = target: woodchuck hepatitis virus (WHV) DNA polymerase (Woodchuck hepatitis B virus, UniProt P03160); experiment: Inhibition of woodchuck hepatitis virus (WHV) DNA polymerase by triphosphates
human DNA polymerase γ = target: T2, human DNA polymerase γ (Homo sapiens, UniProt P54098); experiment: Inhibition of human DNA polymerase γ (Dixon plot, calf thymus activated DNA, dATP); type: biochemical; conditions: calf thymus activated DNA as template-primer, dATP as substrate; read-out: DNA pol γ Ki
T2 sequence (P54098 1-1239): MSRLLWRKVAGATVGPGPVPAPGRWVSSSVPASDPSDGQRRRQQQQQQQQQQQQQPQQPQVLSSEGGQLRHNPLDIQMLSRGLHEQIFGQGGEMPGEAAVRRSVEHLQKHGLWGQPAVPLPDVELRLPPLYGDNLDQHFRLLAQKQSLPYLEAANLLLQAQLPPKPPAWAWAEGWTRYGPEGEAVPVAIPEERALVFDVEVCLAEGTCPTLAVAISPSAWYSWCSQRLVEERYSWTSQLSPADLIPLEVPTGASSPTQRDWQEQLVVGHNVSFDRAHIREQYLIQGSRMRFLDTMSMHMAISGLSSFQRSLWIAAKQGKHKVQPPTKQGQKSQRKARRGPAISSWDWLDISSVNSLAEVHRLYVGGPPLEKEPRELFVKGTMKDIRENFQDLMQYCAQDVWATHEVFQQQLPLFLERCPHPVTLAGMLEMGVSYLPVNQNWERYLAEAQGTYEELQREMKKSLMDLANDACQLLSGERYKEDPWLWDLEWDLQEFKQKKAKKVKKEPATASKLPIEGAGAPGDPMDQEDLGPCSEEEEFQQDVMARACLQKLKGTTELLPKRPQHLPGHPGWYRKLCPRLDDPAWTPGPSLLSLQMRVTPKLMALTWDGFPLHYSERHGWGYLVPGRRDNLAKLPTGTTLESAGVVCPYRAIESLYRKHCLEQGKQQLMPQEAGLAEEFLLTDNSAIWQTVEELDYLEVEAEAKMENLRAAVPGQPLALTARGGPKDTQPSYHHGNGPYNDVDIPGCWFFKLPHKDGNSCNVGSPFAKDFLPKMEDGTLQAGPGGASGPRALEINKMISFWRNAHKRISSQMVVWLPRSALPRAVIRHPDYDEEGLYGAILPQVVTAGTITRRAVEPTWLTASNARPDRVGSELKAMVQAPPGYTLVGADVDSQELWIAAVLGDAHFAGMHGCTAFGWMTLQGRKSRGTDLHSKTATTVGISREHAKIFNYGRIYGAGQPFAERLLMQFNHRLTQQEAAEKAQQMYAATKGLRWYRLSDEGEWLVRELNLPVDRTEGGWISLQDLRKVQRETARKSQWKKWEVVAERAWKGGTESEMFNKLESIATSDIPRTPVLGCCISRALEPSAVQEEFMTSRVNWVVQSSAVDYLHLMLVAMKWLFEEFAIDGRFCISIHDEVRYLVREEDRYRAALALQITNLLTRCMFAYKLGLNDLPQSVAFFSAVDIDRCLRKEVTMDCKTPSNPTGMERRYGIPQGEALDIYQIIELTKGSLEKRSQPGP

Sequence of woodchuck hepatitis virus (WHV) DNA polymerase (P03160 whole entry): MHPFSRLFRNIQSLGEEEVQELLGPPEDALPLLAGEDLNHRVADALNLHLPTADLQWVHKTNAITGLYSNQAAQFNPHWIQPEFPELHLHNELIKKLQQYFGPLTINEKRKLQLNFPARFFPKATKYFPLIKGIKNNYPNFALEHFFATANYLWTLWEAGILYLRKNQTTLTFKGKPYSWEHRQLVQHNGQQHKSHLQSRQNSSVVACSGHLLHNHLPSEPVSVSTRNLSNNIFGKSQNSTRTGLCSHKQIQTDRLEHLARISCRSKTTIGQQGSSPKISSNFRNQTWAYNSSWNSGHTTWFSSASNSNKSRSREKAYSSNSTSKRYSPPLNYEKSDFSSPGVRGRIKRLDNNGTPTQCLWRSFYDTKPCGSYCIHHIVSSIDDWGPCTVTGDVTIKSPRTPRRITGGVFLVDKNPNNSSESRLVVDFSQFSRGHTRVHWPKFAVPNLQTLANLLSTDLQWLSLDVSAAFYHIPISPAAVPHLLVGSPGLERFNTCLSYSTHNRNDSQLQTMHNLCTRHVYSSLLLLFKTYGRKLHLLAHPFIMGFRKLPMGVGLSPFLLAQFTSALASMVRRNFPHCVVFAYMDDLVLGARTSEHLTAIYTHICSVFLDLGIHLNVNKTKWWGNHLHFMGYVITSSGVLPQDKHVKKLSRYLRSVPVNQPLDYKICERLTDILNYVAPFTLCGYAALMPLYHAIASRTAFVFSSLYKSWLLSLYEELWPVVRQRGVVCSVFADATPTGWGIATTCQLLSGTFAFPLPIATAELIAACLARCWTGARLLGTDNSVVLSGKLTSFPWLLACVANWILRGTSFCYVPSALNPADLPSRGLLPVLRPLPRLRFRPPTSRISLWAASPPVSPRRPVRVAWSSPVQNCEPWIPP

## Nc1ncnc2c1ncn2[C@@H]1C[C@@H](O)[C@H](CO)O1 [β-L-dA, 2′-Deoxy-β-L-adenosine]
[1]
  activity compared with 3TC (lamivudine): more active than 3TC (lamivudine)
  viral load reduced to (level): nearly undetectable

## Nc1ncnc2c1ncn2[C@@H]1C[C@@H](O)[C@H](COP(=O)(O)OP(=O)(O)OP(=O)(O)O)O1 [β-L-dA-TP]
Human DNA polymerase α
  Ki: > 100 µM
Human DNA polymerase β
  Ki: > 100 µM
[2]
  IC50: 2.3 µM

## Nc1ccn([C@@H]2C[C@@H](O)[C@H](CO)O2)c(=O)n1 [β-L-dC, 2′-Deoxy-β-L-cytidine]
[1]
  activity compared with 3TC (lamivudine): more active than 3TC (lamivudine)
  viral load reduced to (level): nearly undetectable

## Nc1ccn([C@@H]2C[C@@H](O)[C@H](COP(=O)(O)OP(=O)(O)OP(=O)(O)O)O2)c(=O)n1 [β-L-dC-TP]
Human DNA polymerase α
  Ki: > 100 µM
Human DNA polymerase γ
  Ki: > 100 µM
Human DNA polymerase β
  Ki: > 100 µM
[2]
  IC50: 2 µM

## Cc1cn([C@@H]2C[C@@H](O)[C@H](CO)O2)c(=O)[nH]c1=O [β-L-dT, 2′-Deoxy-β-L-Thymidine]
[1]
  activity compared with 3TC (lamivudine): more active than 3TC (lamivudine)
  viral load reduced to (level): undetectable
[1]; post-treatment
  viral rebound after withdrawal: not detected for at least two weeks

## Cc1cn([C@@H]2C[C@@H](O)[C@H](COP(=O)(O)OP(=O)(O)OP(=O)(O)O)O2)c(=O)[nH]c1=O [β-L-dT-TP]
Human DNA polymerase α
  Ki: > 100 µM
Human DNA polymerase γ
  Ki: > 100 µM
Human DNA polymerase β
  Ki: > 100 µM
[2]
  IC50: 0.34 µM

## O=c1ccn([C@@H]2C[C@@H](O)[C@H](COP(=O)(O)OP(=O)(O)OP(=O)(O)O)O2)c(=O)[nH]1 [β-L-dU-TP]
Human DNA polymerase α
  Ki: > 100 µM
Human DNA polymerase γ
  Ki: > 100 µM
Human DNA polymerase β
  Ki: > 100 µM
[2]
  IC50: 8 µM
